Test results published in PubChem BioAssay AID1745844 (Carcinogenic Potency Database (CPDB), 2022).
Active and inactive are the calls of the source. How the calls were made is not given here.

Tested on: rodent lifetime carcinogenesis bioassay, tumor incidence TD50
Assay: carcinogenic potency in animals, long-term in vivo studies, CPDB compilation (AID 1745844)

SMILES: Oc1ccc(O)cc1
- TD50 (mouse, strain B6C3F1, females, by gavage, site: liver, lesion: hepatocellular adenoma + hepatocellular carcinoma + neoplastic nodule, dosed 103 weeks, study length 105 weeks): 122 mg/kg/day
- TD50 (mouse, strain B6C3F1, females, by gavage, site: liver, lesion: hepatocellular adenoma + hepatocellular carcinoma, dosed 103 weeks, study length 105 weeks): 122 mg/kg/day
- TD50 (mouse, strain B6C3F1, females, by gavage, site: liver, lesion: hepatocellular adenoma, dosed 103 weeks, study length 105 weeks): 65 mg/kg/day
- TD50 (mouse, strain B6C3F1, females, by gavage, site: lung, lesion: alveolar/bronchiolar adenoma + alveolar/bronchiolar carcinoma, dosed 103 weeks, study length 105 weeks): 19200 mg/kg/day
- TD50 (mouse, strain B6C3F1, females, in feed, site: liver, lesion: hepatocellular adenoma, dosed 96 weeks, study length 96 weeks): 17900 mg/kg/day
- TD50 (mouse, strain B6C3F1, males, by gavage, site: any site (literature study), lesion: several types, types named in the paper, dosed 103 weeks, study length 104 weeks): 497 mg/kg/day (inactive)
- TD50 (mouse, strain B6C3F1, males, by gavage, site: liver, lesion: hepatocellular adenoma + hepatocellular carcinoma + neoplastic nodule, dosed 103 weeks, study length 104 weeks): 383 mg/kg/day
- TD50 (mouse, strain B6C3F1, males, in feed, site: kidney, lesion: adenoma, dosed 96 weeks, study length 96 weeks): 5320 mg/kg/day
- TD50 (mouse, strain B6C3F1, males, in feed, site: liver, lesion: hepatocellular adenoma, dosed 96 weeks, study length 96 weeks): 1450 mg/kg/day
- TD50 (rat, strain F344/DuCrj, females, in feed, site: liver, lesion: hepatocellular carcinoma, dosed 104 weeks, study length 104 weeks): 8080 mg/kg/day
- TD50 (rat, strain F344/DuCrj, males, in feed, site: kidney, lesion: adenoma, dosed 104 weeks, study length 104 weeks): 349 mg/kg/day
- TD50 (rat, strain Fischer 344, females, by gavage, site: all sites, lesion: mononuclear-cell leukemia, dosed 103 weeks, study length 104 weeks): 55.8 mg/kg/day
- TD50 (rat, strain Fischer 344, females, by gavage, site: any site (literature study), lesion: several types, types named in the paper, dosed 103 weeks, study length 104 weeks): 51.6 mg/kg/day
- TD50 (rat, strain Fischer 344, males, by gavage, site: adrenal medulla, lesion: pheochromocytoma benign, bilateral + pheochromocytoma, benign, dosed 103 weeks, study length 104 weeks): 48.2 mg/kg/day
- TD50 (rat, strain Fischer 344, males, by gavage, site: adrenal medulla, lesion: pheochromocytoma benign, bilateral + pheochromocytoma, malignant + pheochromocytoma, benign, dosed 103 weeks, study length 104 weeks): 40.4 mg/kg/day
- TD50 (rat, strain Fischer 344, males, by gavage, site: any site (literature study), lesion: several types, types named in the paper, dosed 103 weeks, study length 104 weeks): 41.8 mg/kg/day
- TD50 (rat, strain Fischer 344, males, by gavage, site: kidney, lesion: tubule adenoma, dosed 103 weeks, study length 104 weeks): 64.7 mg/kg/day
- TD50 (rat, strain Fischer 344, males, by gavage, site: liver, lesion: hepatocellular adenoma + hepatocellular carcinoma + neoplastic nodule, dosed 103 weeks, study length 104 weeks): 5710 mg/kg/day

SMILES: O=C(Nc1nc(-c2ccc([N+](=O)[O-])o2)cs1)C(F)(F)F
- TD50 (mouse, strain Swiss, females, in feed, site: any site (literature study), lesion: several types, types named in the paper, dosed 46 weeks, study length 55 weeks): 8.01 mg/kg/day
- TD50 (mouse, strain Swiss, females, in feed, site: forestomach, lesion: several types, types named in the paper, dosed 46 weeks, study length 55 weeks): 9.98 mg/kg/day
- TD50 (mouse, strain Swiss, females, in feed, site: forestomach, lesion: squamous-cell carcinoma, dosed 46 weeks, study length 55 weeks): 38.6 mg/kg/day
- TD50 (mouse, strain Swiss, females, in feed, site: forestomach, lesion: squamous-cell papilloma, dosed 46 weeks, study length 55 weeks): 43.5 mg/kg/day
- TD50 (rat, strain Sprague-Dawley, females, in feed, site: any site (literature study), lesion: several types, types named in the paper, dosed 46 weeks, study length 66 weeks): 5.58 mg/kg/day
- TD50 (rat, strain Sprague-Dawley, females, in feed, site: mammary gland, lesion: adenocarcinoma, dosed 46 weeks, study length 66 weeks): 7.27 mg/kg/day
- TD50 (rat, strain Sprague-Dawley, females, in feed, site: mammary gland, lesion: several types, types named in the paper, dosed 46 weeks, study length 66 weeks): 6.79 mg/kg/day

SMILES: CCN(CC)c1ccc(N=Nc2cc[n+]([O-])cc2)cc1
- carcinogen call (rat, strain Sprague-Dawley, males, in feed, site: liver, lesion: one or several types, types not named, dosed 52 weeks, study length 52 weeks): positive

SMILES: COc1ccc(C)cc1N
- TD50 (mouse, strain B6C3F1, females, in feed, site: any site (literature study), lesion: several types, types named in the paper, dosed 97 weeks, study length 97 weeks): 75 mg/kg/day
- TD50 (mouse, strain B6C3F1, females, in feed, site: liver + urinary bladder, lesion: hepatocellular adenoma + hepatocellular carcinoma + carcinoma, NOS + neoplasm, NOS, malignant + squamous-cell carc, dosed 97 weeks, study length 97 weeks): 69 mg/kg/day
- TD50 (mouse, strain B6C3F1, females, in feed, site: liver, lesion: hepatocellular adenoma + hepatocellular carcinoma + neoplastic nodule, dosed 97 weeks, study length 97 weeks): 301 mg/kg/day
- TD50 (mouse, strain B6C3F1, females, in feed, site: liver, lesion: hepatocellular adenoma + hepatocellular carcinoma, dosed 97 weeks, study length 97 weeks): 301 mg/kg/day
- TD50 (mouse, strain B6C3F1, females, in feed, site: liver, lesion: hepatocellular carcinoma, dosed 97 weeks, study length 97 weeks): 315 mg/kg/day
- TD50 (mouse, strain B6C3F1, females, in feed, site: lung, lesion: alveolar/bronchiolar adenoma + alveolar/bronchiolar carcinoma, dosed 97 weeks, study length 97 weeks): 3810 mg/kg/day
- TD50 (mouse, strain B6C3F1, females, in feed, site: urinary bladder, lesion: carcinoma, NOS + neoplasm, NOS, malignant + squamous-cell carcinoma + transitional-cell carcinoma, dosed 97 weeks, study length 97 weeks): 69 mg/kg/day
- TD50 (mouse, strain B6C3F1, females, in feed, site: urinary bladder, lesion: carcinoma, NOS + squamous-cell carcinoma + transitional-cell carcinoma, dosed 97 weeks, study length 97 weeks): 70.1 mg/kg/day
- TD50 (mouse, strain B6C3F1, males, in feed, site: any site (literature study), lesion: several types, types named in the paper, dosed 97 weeks, study length 97 weeks): 46.4 mg/kg/day
- TD50 (mouse, strain B6C3F1, males, in feed, site: liver, lesion: hepatocellular adenoma + hepatocellular carcinoma + neoplastic nodule, dosed 97 weeks, study length 97 weeks): 255 mg/kg/day
- TD50 (mouse, strain B6C3F1, males, in feed, site: lung, lesion: alveolar/bronchiolar adenoma + alveolar/bronchiolar carcinoma, dosed 97 weeks, study length 97 weeks): 1170 mg/kg/day
- TD50 (mouse, strain B6C3F1, males, in feed, site: urinary bladder, lesion: squamous-cell carcinoma + transitional-cell carcinoma, dosed 97 weeks, study length 97 weeks): 44.7 mg/kg/day
- TD50 (rat, strain Fischer 344, females, in feed, site: adrenal gland, lesion: cortical adenoma, dosed 104 weeks, study length 105 weeks): 1490 mg/kg/day
- TD50 (rat, strain Fischer 344, females, in feed, site: any site (literature study), lesion: several types, types named in the paper, dosed 104 weeks, study length 105 weeks): 93.8 mg/kg/day
- TD50 (rat, strain Fischer 344, females, in feed, site: liver, lesion: hepatocellular adenoma + hepatocellular carcinoma + neoplastic nodule, dosed 104 weeks, study length 105 weeks): 2180 mg/kg/day
- TD50 (rat, strain Fischer 344, females, in feed, site: nasal cavity + urinary bladder, lesion: olfactory neuroblastoma + neoplasm, NOS + papillary carcinoma + squamous-cell carcinoma + transitional-cell carcinoma, dosed 104 weeks, study length 105 weeks): 110 mg/kg/day
- TD50 (rat, strain Fischer 344, females, in feed, site: nasal cavity, lesion: olfactory neuroblastoma, dosed 104 weeks, study length 105 weeks): 1190 mg/kg/day
- TD50 (rat, strain Fischer 344, females, in feed, site: urinary bladder, lesion: neoplasm, NOS + papillary carcinoma + squamous-cell carcinoma + transitional-cell carcinoma, dosed 104 weeks, study length 105 weeks): 110 mg/kg/day
- TD50 (rat, strain Fischer 344, females, in feed, site: uterus, lesion: endometrial stromal polyp, dosed 104 weeks, study length 105 weeks): 913 mg/kg/day
- TD50 (rat, strain Fischer 344, males, in feed, site: any site (literature study), lesion: several types, types named in the paper, dosed 104 weeks, study length 105 weeks): 98 mg/kg/day
- TD50 (rat, strain Fischer 344, males, in feed, site: brain + brain stem, lesion: glioma, NOS, dosed 104 weeks, study length 105 weeks): 3510 mg/kg/day
- TD50 (rat, strain Fischer 344, males, in feed, site: liver + nasal cavity + nasopharynx + urinary bladder, lesion: hepatocellular carcinoma + mixed hepato/cholangio carcinoma + neoplastic nodule + adenoma, NOS + carcinoma, NOS + neuroblastoma + ne, dosed 104 weeks, study length 105 weeks): 76.3 mg/kg/day
- TD50 (rat, strain Fischer 344, males, in feed, site: liver, lesion: hepatocellular adenoma + hepatocellular carcinoma + neoplastic nodule, dosed 104 weeks, study length 105 weeks): 443 mg/kg/day
- TD50 (rat, strain Fischer 344, males, in feed, site: liver, lesion: hepatocellular carcinoma + mixed hepato/cholangio carcinoma + neoplastic nodule, dosed 104 weeks, study length 105 weeks): 406 mg/kg/day
- TD50 (rat, strain Fischer 344, males, in feed, site: nasal cavity + nasopharynx, lesion: carcinoma, NOS + neoplasm, NOS, malignant + adenocarcinoma, NOS, dosed 104 weeks, study length 105 weeks): 4620 mg/kg/day
- TD50 (rat, strain Fischer 344, males, in feed, site: nasal cavity, lesion: adenoma, NOS + carcinoma, NOS + neuroblastoma + neoplasm, NOS, malignant + olfactory neuroblastoma, dosed 104 weeks, study length 105 weeks): 397 mg/kg/day
- TD50 (rat, strain Fischer 344, males, in feed, site: nasal cavity, lesion: neuroblastoma + olfactory neuroblastoma, dosed 104 weeks, study length 105 weeks): 450 mg/kg/day
- TD50 (rat, strain Fischer 344, males, in feed, site: testis, lesion: interstitial-cell tumor, dosed 104 weeks, study length 105 weeks): 165 mg/kg/day
- TD50 (rat, strain Fischer 344, males, in feed, site: urinary bladder, lesion: papillary carcinoma + squamous-cell carcinoma + transitional-cell carcinoma + transitional-cell papilloma + undifferentiated car, dosed 104 weeks, study length 105 weeks): 88.4 mg/kg/day

SMILES: CN(C)C=O
- TD50 (mouse, strain Charles River CD1, females, inhaled, site: liver, lesion: hepatocellular adenoma, dosed 78 weeks, study length 78 weeks): 15800 mg/kg/day (inactive)
- carcinogen call (mouse, strain Charles River CD1, males, inhaled, site: liver, lesion: hepatocellular adenoma, dosed 78 weeks, study length 78 weeks): negative (inactive)
- TD50 (mouse, strain Charles River CD1, males, inhaled, site: liver, lesion: hepatocellular carcinoma, dosed 78 weeks, study length 78 weeks): 3070 mg/kg/day (inactive)
- carcinogen call (rat, strain Charles River CD (Sprague-Dawley), females, inhaled, site: liver, lesion: hepatocellular adenoma, dosed 104 weeks, study length 104 weeks): negative (inactive)
- TD50 (rat, strain Charles River CD (Sprague-Dawley), males, inhaled, site: liver, lesion: hepatocellular adenoma, dosed 104 weeks, study length 104 weeks): 2640 mg/kg/day (inactive)
- TD50 (rat, strain Charles River CD (Sprague-Dawley), males, inhaled, site: liver, lesion: hepatocellular carcinoma, dosed 104 weeks, study length 104 weeks): 3340 mg/kg/day (inactive)

SMILES: Cc1cc(Cc2cc(C)cc(C(C)(C)C)c2O)c(O)c(C(C)(C)C)c1
- carcinogen call (rat, strain Wistar, females, in feed, site: liver, lesion: one or several types, types not named, dosed 52 weeks, study length 52 weeks): negative (inactive)
- carcinogen call (rat, strain Wistar, females, in feed, site: liver, lesion: one or several types, types not named, dosed 78 weeks, study length 78 weeks): negative (inactive)
- carcinogen call (rat, strain Wistar, males, in feed, site: liver, lesion: hepatocellular adenoma, dosed 78 weeks, study length 78 weeks): negative (inactive)
- carcinogen call (rat, strain Wistar, males, in feed, site: liver, lesion: one or several types, types not named, dosed 52 weeks, study length 52 weeks): negative (inactive)
- TD50 (rat, strain Wistar, males, in feed, site: testis, lesion: interstitial-cell tumor, dosed 52 weeks, study length 52 weeks): 44.5 mg/kg/day (inactive)
- TD50 (rat, strain Wistar, males, in feed, site: testis, lesion: interstitial-cell tumor, dosed 78 weeks, study length 78 weeks): 36.6 mg/kg/day (inactive)

SMILES: CN(C)c1ccc(N=Nc2ccccc2)cc1
- TD50 (monkey, strain Rhesus [Macaca mulatta], both sexes, in feed, site: any site (literature study), lesion: malignant tumor, dosed 258 weeks, study length 1019 weeks): 17.2 mg/kg/day
- TD50 (monkey, strain Rhesus [Macaca mulatta], both sexes, in feed, site: lung, lesion: alveolar/bronchiolar carcinoma, dosed 258 weeks, study length 1019 weeks): 4.84 mg/kg/day
- TD50 (rat, strain Wistar albino, females, in feed, site: liver, lesion: bile duct tumor, dosed 33 weeks, study length 56 weeks): 4.9 mg/kg/day
- TD50 (rat, strain Wistar albino, females, in feed, site: liver, lesion: hepatoma, dosed 33 weeks, study length 56 weeks): 3.31 mg/kg/day
- TD50 (rat, strain Wistar albino, females, in feed, site: liver, lesion: liver-cell carcinoma, dosed 33 weeks, study length 56 weeks): 7.42 mg/kg/day
